From patent US8124629B2, “Naphthylacetic acids” (Hoffmann-La Roche Inc., priority 2008, dated 2012) come the findings set out here.

Usually IC50 stands for the point on the concentration scale where inhibition reaches its midpoint.

For this assay, the target named is T1, human CRTH2 (Homo sapiens, UniProt Q9Y5Y4).
T1 sequence (Q9Y5Y4 1-395): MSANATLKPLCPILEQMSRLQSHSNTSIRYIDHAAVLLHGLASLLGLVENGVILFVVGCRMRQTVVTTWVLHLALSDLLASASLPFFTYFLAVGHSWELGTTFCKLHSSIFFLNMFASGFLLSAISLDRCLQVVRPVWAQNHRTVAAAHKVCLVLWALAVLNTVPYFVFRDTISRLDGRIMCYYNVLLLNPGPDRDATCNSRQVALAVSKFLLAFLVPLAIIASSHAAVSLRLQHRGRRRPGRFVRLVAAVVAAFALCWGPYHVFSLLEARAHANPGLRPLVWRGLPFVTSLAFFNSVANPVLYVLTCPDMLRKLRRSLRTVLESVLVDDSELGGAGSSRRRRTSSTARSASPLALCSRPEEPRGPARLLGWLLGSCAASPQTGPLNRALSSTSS
Briefly: Human CRTH2 Receptor Binding Assay (whole cell, [3H]ramatroban). Also on record: expressed in transfected cells; host or cells: CHO-K1. As to conditions: CHO-K1 cells expressing human CRTH2 and G-alpha16; 20 nM [3H]ramatroban; 1 hour, room temperature. From the text: A whole cell receptor binding assay using [^3H]ramatroban as the competing radioactive ligand was employed to evaluate the compound binding activity to human CRTH2. The radioactive ligand [^3H]ramatroban was synthesized according to Sugimoto et. al. (Eur. J. Pharmacol. 524, 30-37, 2005) to a specific activity of 42 Ci/mmol.
A cell line stably expressing human CRTH2 was established by transfecting CHO-K1 cells with two mammalian expression vectors that harbored human CRTH2 and G-alpha16 cDNAs, respectively, using FuGene® 6 transfection reagent (from Roche). Stable clones expressing CRTH2 were selected by staining each clone with BM16 (BD Pharmingen™ from BD Biosciences, a division of Becton, Dickinson and Company), which is a rat monoclonal antibody to human CRTH2. The cells were maintained as monolayer cultures in Ham's F-12 medium containing 10% fetal bovine serum, 100 units/mL penicillin, 100 μg/mL streptomycin, 2 mM glutamine, 0.5 mg/mL G418 (geneticin) for CRTH2, and 0.2 mg/mL hygromycin-B (for G-alpha 16). For whole cell receptor binding assay, the monolayer cells were rinsed once with PBS (phosphate buffered saline), dissociated using ethylenediaminetetraacetate (Versene™ EDTA from Lonza Inc.), and suspended in PBS containing 10 mM MgCl2 and 0.06% BSA (bovine serum albumin) at 1.5×10^6 cells/mL.
The binding reactions (0.2 mL) were performed in 96-well plates at room temperature in PBS containing 1.5×10^5 cells, 10 mM MgCl2, 0.06% BSA, 20 nM [^3H]ramatroban, and test compound at various concentrations. After 1 hour of binding reactions, the cells were harvested on GF™/B filter microplates (microtiter plates with embedded glass fiber from Perkin Elmer, Inc.) and washed 5 times with PBS using a Filtermate™ Harvester (a cell harvester that harvests and washes cells from microplates from PerkinElmer, Inc.). The radioactivities bound to the cells were determined using a microplate scintillation counter (TopCount® NXT, from PerkinElmer, Inc.) after adding 50 μL of Microscint™ 20 scintillation fluid (from PerkinElmer, Inc.) to each well of the filter plates. The radioactivity from non-specific binding was determined by replacing compound with 10 μM of 15(R)-15-methyl PGD2 (from Cayman Chemical Company) in the reaction mixtures. The radioactivity bound to the cells in the absence of compound (total binding) was determined by replacing compound with 0.25% of DMSO (dimethyl sulfoxide) in the reaction mixture. Specific binding data were obtained by subtracting the radioactivity of non-specific binding from each binding data.
The IC50 value is defined as the concentration of the tested compound that is required for 50% inhibition of total specific binding. In order to calculate the IC50 value, the percent inhibition data were determined for 7 concentrations for each compound. The percent inhibition for a compound at each concentration was calculated according to the following formula, [1-(specific binding in the presence of compound)/(total specific binding)]×100. The IC50 value was then obtained by fitting the percent inhibition data to a sigmoidal dose-response (4 parameter logistic) model in the XLfit® software Excel add-in program [from ID Business Solutions Ltd., model 205, where F(x)=(A+(B−A)/(1+((C/×)^D)))].
Turning to `Cc1c(CC(=O)O)cc2ccc(F)cc2c1Cc1cccc(S(C)(=O)=O)c1` [Example 10-2, [6-Fluoro-4-(3-methanesulfonyl-benzyl)-3-methyl-naphthalen-2-yl]-acetic acid], the IC50 came to 54 nM.

`Cc1c(CC(=O)O)cc2ccc(F)cc2c1Cc1cccc(Cl)c1` [Example 15-2, [4-(3-Chloro-benzyl)-6-fluoro-3-methyl-naphthalen-2-yl]-acetic acid] came in with a 50% inhibitory concentration (IC50) of 83.8 nM.

For the compound `Cc1cc(S(C)(=O)=O)ccc1C(=O)c1cc(CC(=O)O)cc2ccc(F)cc12` [Example 2-5, [6-Fluoro-4-(4-methanesulfonyl-2-methyl-benzoyl)-naphthalen-2-yl]-acetic acid], the IC50 turned out to be 15.1 nM.

Consider `Cc1c(CC(=O)O)cc2ccc(F)cc2c1Cc1ccc(F)cc1` [Example 15-3, [6-Fluoro-4-(4-fluoro-benzyl)-3-methyl-naphthalen-2-yl]-acetic acid], for which the IC50 was 32.8 nM.

Compound `CS(=O)(=O)c1ccc(C(=O)c2cc(CC(=O)O)cc3ccc(Cl)cc23)cc1` [Example 2-27, [6-Chloro-4-(4-methanesulfonyl-benzoyl)-naphthalen-2-yl]-acetic acid] came in with a half-maximal inhibitory concentration (IC50) of 6.4 nM.

The compound `CS(=O)(=O)c1ccc(Cc2cc(CC(=O)O)cc3ccc(C(F)(F)F)cc23)cc1` [Example 8-2, [4-(4-Methanesulfonyl-benzyl)-6-trifluoromethyl-naphthalen-2-yl]-acetic acid] registered a concentration for half-maximal inhibition (IC50) of 15.3 nM.

`CCS(=O)(=O)c1ccc(C(=O)c2cc(CC(=O)O)cc3ccc(F)cc23)cc1` [Example 2-13, [4-(4-Ethanesulfonyl-benzoyl)-6-fluoro-naphthalen-2-yl]-acetic acid]: the IC50 was found to be 3 nM.

`Cc1c(CC(=O)O)cc2ccc(F)cc2c1Cc1ccc(-n2cccn2)cc1` [Example 10-6, [6-Fluoro-3-methyl-4-(4-pyrazol-1-yl-benzyl)-naphthalen-2-yl]-acetic acid] showed an IC50 of 26.7 nM.

`CS(=O)(=O)c1ccc(Cc2cc(CC(=O)O)cc3ccc(F)cc23)cc1` [Example 8-4, [6-Fluoro-4-(4-methanesulfonyl-benzyl)-naphthalen-2-yl]-acetic acid] registered an IC50 of 6.1 nM.

On to `Cc1c(CC(=O)O)cc2ccc(Cl)cc2c1C(=O)c1ccc(S(C)(=O)=O)cc1` [Example 6-2, [6-Chloro-4-(4-methanesulfonyl-benzoyl)-3-methyl-naphthalen-2-yl]-acetic acid], for which the IC50 worked out at 3.7 nM.

In the case of `O=C(O)Cc1cc(C(=O)c2ccc(S(=O)(=O)N3CCN(c4ccccc4F)CC3)cc2)c2cc(F)ccc2c1` [Example 2-26, (6-Fluoro-4-{4-[4-(2-fluoro-phenyl)-piperazine-1-sulfonyl]-benzoyl}-naphthalen-2-yl)-acetic acid], the IC50 is 7 nM.

`Cc1c(CC(=O)O)cc2ccc(F)cc2c1Cc1ccc(OC(F)(F)F)cc1` [Example 15-4, [6-Fluoro-3-methyl-4-(4-trifluoromethoxy-benzyl)-naphthalen-2-yl]-acetic acid] displayed an IC50 of 79.3 nM.

`Cc1c(CC(=O)O)cc2ccc(F)cc2c1Cc1ccc(-c2nnnn2C)cc1` [Example 10-10, {6-Fluoro-3-methyl-4-[4-(1-methyl-1H-tetrazol-5-yl)-benzyl]-naphthalen-2-yl}-acetic acid] returned a 50% inhibitory concentration (IC50) of 32.5 nM.

In turn, `CCS(=O)(=O)c1ccc(C(O)c2cc(CC(=O)O)cc3ccc(F)cc23)cc1` (centres unmarked) [Example 16-7, {4-[(4-Ethanesulfonyl-phenyl)-hydroxy-methyl]-6-fluoro-naphthalen-2-yl}-acetic acid] displayed an IC50 of 17.4 nM.

Take `Cc1c(CC(=O)O)cc2ccc(Cl)cc2c1Cc1ccc(S(C)(=O)=O)cc1` [Example 10-12, [6-Chloro-4-(4-methanesulfonyl-benzyl)-3-methyl-naphthalen-2-yl]-acetic acid]: the IC50 amounted to 10 nM.

On to `Cc1c(CC(=O)O)cc2ccc(F)cc2c1Cc1cccc(S(=O)(=O)C(F)(F)F)c1` [Example 11-2, [6-Fluoro-3-methyl-4-(3-trifluoromethanesulfonyl-benzyl)-naphthalen-2-yl]-acetic acid], for which the half-maximal inhibitory concentration (IC50) amounted to 68 nM.

Compound `Cc1c(CC(=O)O)cc2ccc(F)cc2c1C(=O)c1ccc(S(C)(=O)=O)cc1` [Example 6-1, [6-fluoro-4-(4-methanesulfonyl-benzoyl)-3-methyl-naphthalen-2-yl]-acetic acid] showed an IC50 of 2.1 nM.

As for `CS(=O)(=O)c1cccc(C(=O)c2cc(CC(=O)O)cc3ccc(F)cc23)c1` [Example 2-10, [6-Fluoro-4-(3-methanesulfonyl-benzoyl)-naphthalen-2-yl]-acetic acid], the IC50 is 44.8 nM.

With `Cc1c(CC(=O)O)cc2ccc(F)cc2c1Cc1ccc(-c2ccc(S(C)(=O)=O)cc2)cc1` [Example 12-1, [6-Fluoro-4-(4′-methanesulfonyl-biphenyl-4-ylmethyl)-3-methyl-naphthalen-2-yl]-acetic acid], the IC50 was determined as 5.6 nM.

`O=C(O)Cc1cc(C(=O)c2ccc(S(=O)(=O)N3CCCCC3)cc2)c2cc(F)ccc2c1` [Example 2-21, {6-Fluoro-4-[4-(piperidine-1-sulfonyl)-benzoyl]-naphthalen-2-yl}-acetic acid]: the IC50 stood at 3.8 nM.

`CCS(=O)(=O)c1ccc(Cc2c(C)c(CC(=O)O)cc3ccc(F)cc23)cc1` [Example 13-1, [4-(4-Ethanesulfonyl-benzyl)-6-fluoro-3-methyl-naphthalen-2-yl]-acetic acid] had a 50% inhibitory concentration (IC50) of 3.1 nM.

As to `CNS(=O)(=O)c1ccc(C(O)c2cc(CC(=O)O)cc3ccc(F)cc23)cc1` (centres unmarked) [Example 20-1, {6-Fluoro-4-[hydroxy-(4-methylsulfamoyl-phenyl)-methyl]-naphthalen-2-yl}-acetic acid], the IC50 is 22.1 nM.

`CS(=O)(=O)c1ccc(C(O)c2cc(CC(=O)O)cc3ccc(F)cc23)cc1` (centres unmarked) [Example 16-5, {6-Fluoro-4-[hydroxy-(4-methanesulfonyl-phenyl)-methyl]-naphthalen-2-yl}-acetic acid]: the concentration for half-maximal inhibition (IC50) is 8 nM.

Turning to `CS(=O)(=O)c1cc(C(=O)c2cc(CC(=O)O)cc3ccc(F)cc23)ccc1F` [Example 2-31, [6-Fluoro-4-(4-fluoro-3-methanesulfonyl-benzoyl)-naphthalen-2-yl]-acetic acid], the IC50 was 103 nM.

`CCS(=O)(=O)c1ccc(C(=O)c2c(C)c(CC(=O)O)cc3ccc(F)cc23)cc1` [Example 6-3, [4-(4-Ethanesulfonyl-benzoyl)-6-fluoro-3-methyl-naphthalen-2-yl]-acetic acid] returned a half-inhibitory concentration (IC50) of 2.4 nM.

Turning to `Cc1c(CC(=O)O)cc2ccc(F)cc2c1C(O)c1ccc(S(C)(=O)=O)cc1` (centres unmarked) [Example 19-1, {6-Fluoro-4-[hydroxy-(4-methanesulfonyl-phenyl)-methyl]-3-methyl-naphthalen-2-yl}-acetic acid], the IC50 stood at 11.8 nM.

`Cc1c(CC(=O)O)cc2ccc(F)cc2c1Cc1ccc(SCc2ccccc2)cc1` [Example 10-11, [4-(4-Benzylsulfanyl-benzyl)-6-fluoro-3-methyl-naphthalen-2-yl]-acetic acid] registered a 50% inhibitory concentration (IC50) of 3.5 nM.

`Cc1cc(S(C)(=O)=O)ccc1Cc1cc(CC(=O)O)cc2ccc(F)cc12` [Example 8-5, [6-Fluoro-4-(4-methanesulfonyl-2-methyl-benzyl)-naphthalen-2-yl]-acetic acid]: the IC50 amounted to 5.3 nM.

Compound `O=C(O)Cc1cc(C(=O)c2ccc(S(=O)(=O)N3CCOCC3)cc2)c2cc(F)ccc2c1` [Example 2-16, {6-Fluoro-4-[4-(morpholine-4-sulfonyl)-benzoyl]-naphthalen-2-yl}-acetic acid] yielded an IC50 of 3.3 nM.
